Assay results reported in US7829586B2, “Aryl-substituted nitrogen-containing heterocyclic compounds” (Banyu Pharmaceutical Co., Ltd., priority 2005, dated 2010).

Key:
nociceptin receptor ORL1 [1] = molecular target: T1, nociceptin receptor ORL1 (Homo sapiens, UniProt P41146); assay: Nociceptin receptor binding inhibition assay ([125I]Tyr14-Nociceptin, CHO/ORL1 membrane fractions, SPA); design: expressed in transfected cells; membrane fractions; conditions: CHO/ORL1 membrane fraction, 50 pM [125I]Tyr14-Nociceptin, 37° C., 60 minutes
Description: Nociceptin Receptor Binding Inhibition Assay
A cDNA that codes for a human nociceptin receptor gene was cloned into an expression vector pCR3 (by Invitrogen) to prepare pCR3/ORL1. Next, pCR3/ORL1 was transfected in CHO cells using a transfectam (by Nippongene) to obtain a stable expression strain (CHO/ORL1 cells) having resistance against 1 mg/ml G418. Membrane fractions were prepared from this stable expression strain to carry out a receptor binding assay. 11 μg of the membrane fraction, 50 pM [^125I]Tyr^14-Nociceptin (by Amersham Pharmacia), 1 mg of wheatgerm agglutinin SPA beads (PVT based, by Amersham Pharmacia) and each test compound were suspended in an NC buffer (50 mM Hepes, 10 mM sodium chloride, 1 mM magnesium chloride, 2.5 mM calcium chloride, 0.1% BSA, 0.025% bacitracin, pH 7.4) and incubated at 37° C. for 60 minutes, and then the radioactivity of the culture was determined. The binding activity to the nociceptin receptor was indicated by the 50% inhibition concentration (IC50 value) of [^125I]Tyr^14-Nociceptin binding by each test compound.

nociceptin receptor ORL1 [2] = molecular target: T1, nociceptin receptor ORL1; assay: Antagonism against nociceptin-elicited G protein activation (GTPγ[35S] binding, CHO/ORL1 membranes); assay type: biochemical; design: expressed in transfected cells; membrane preparation; conditions: CHO/ORL1 membrane, 50 nM nociceptin, 200 pM GTPγ[35S], 25° C., 150 minutes
Description: Antagonism Against Nociceptin-Elicited G Protein Activation
CHO cells which stably expressed a nociceptin receptor ORL1 were used to investigate the action of each test compound against nociceptin-elicited G protein activation. A membrane prepared from the CHO/ORL1 cells, 50 nM nociceptin, 200 pM GTPγ[^35S] (by NEN), 1.5 mg of wheatgerm agglutinin SPA beads (by Amersham Pharmacia) and each test compound were mixed in a GDP buffer (20 mM Hepes, 100 mM sodium chloride, 10 mM magnesium chloride, 1 mM EDTA, 5 μM GDP, pH 7.4) and incubated at 25° C. for 150 minutes, and then the radioactivity was determined. The antagonism against the nociceptin-elicited G protein activation was shown by the 50% inhibition concentration (IC50 value) of the test compound against GTPγ[^35S] binding.

T1 sequence (P41146 whole entry): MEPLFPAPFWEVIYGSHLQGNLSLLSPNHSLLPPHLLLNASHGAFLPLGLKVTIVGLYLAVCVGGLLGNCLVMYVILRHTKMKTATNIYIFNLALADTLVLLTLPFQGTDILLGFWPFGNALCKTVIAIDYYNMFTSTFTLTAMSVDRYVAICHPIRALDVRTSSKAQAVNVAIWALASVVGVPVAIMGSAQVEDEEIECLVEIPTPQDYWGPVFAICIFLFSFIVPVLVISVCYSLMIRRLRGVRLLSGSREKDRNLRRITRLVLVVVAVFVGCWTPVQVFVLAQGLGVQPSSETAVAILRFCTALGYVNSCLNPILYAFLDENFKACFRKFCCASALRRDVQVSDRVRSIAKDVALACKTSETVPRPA

IC50 (nociceptin receptor ORL1 [1]) [nM]	IC50 (nociceptin receptor ORL1 [2]) [nM]	Structure (SMILES)
0.62	0.47	COCc1c(CN[C@H]2CC[C@@H](F)C2)n[nH]c1-c1cc(F)cc(F)c1 [Example 19, 5-(3,5-Difluorophenyl)-3-[(1S,3R)-3-fluorocyclopentylamino]methyl-4-methoxymethyl-1H-pyrazole]
1.1	0.6	COCc1c(CN[C@H]2CC[C@@H](OC)CC2)n[nH]c1-c1cc(F)cc(F)c1 [Example 34, 5-(3,5-Difluorophenyl)-3-(cis-4-methoxycyclohexylamino)methyl-4-methoxymethyl-1H-pyrazole]
6.8	6	CCc1c(CN[C@H]2CC[C@@H](F)CC2)nc(C)n1-c1cc(F)cc(F)c1 [Example 38, 1-(3,5-Difluorophenyl)-4-(cis-4-fluorocyclohexylamino)methyl-5-ethyl-2-methyl-1H-imidazole]
8.2	4.6	Cc1c(CN[C@H]2CC[C@@H](F)C2)nn(CCC#N)c1-c1cc(F)cc(F)c1 [Example 13, 1-(2-Cyanoethyl)-5-(3,5-difluorophenyl)-3-[(1S,3R)-3-fluorocyclopentylamino]methyl-4-methyl-1H-pyrazole]
7.5	7.5	Cc1c(CN[C@H]2CC[C@@H](F)C2)n[nH]c1-c1cc(F)cc(F)c1 [Example 8, 5-(3,5-Difluorophenyl)-3-[(1S,3R)-3-fluorocyclopentylamino]methyl-4-methyl-1H-pyrazole]
0.92	0.61	Cc1ncc(-c2c(C)c(CN[C@H]3CC[C@@H](F)C3)nn2C(C)C)cc1F [Example 2, 3-[(1S,3R)-3-fluorocyclopentylamino]methyl-5-(5-fluoro-6-methylpyridin-3-yl)-1-isopropyl-4-methyl-1H-pyrazole]
